Patent publication US20240116985A1, “STAPLED PEPTIDES AND METHODS THEREOF” (priority 2020, published 2024)
pIC50: −log10 of the molar value.

Tests used:
[1] = target: T1, full-length beta-Catenin (Uniprot ID P35222) (Homo sapiens, UniProt P35222); test: Fluorescence polarization IC50 (beta-catenin / 5FAM-TCF4 10-53 competition); format: binding; conditions: fluorescence polarization; read-out: beta-Catenin FP IC50
T1 construct: 10 nM full-length beta-Catenin (Uniprot ID P35222)
T1 sequence (P35222 1-781): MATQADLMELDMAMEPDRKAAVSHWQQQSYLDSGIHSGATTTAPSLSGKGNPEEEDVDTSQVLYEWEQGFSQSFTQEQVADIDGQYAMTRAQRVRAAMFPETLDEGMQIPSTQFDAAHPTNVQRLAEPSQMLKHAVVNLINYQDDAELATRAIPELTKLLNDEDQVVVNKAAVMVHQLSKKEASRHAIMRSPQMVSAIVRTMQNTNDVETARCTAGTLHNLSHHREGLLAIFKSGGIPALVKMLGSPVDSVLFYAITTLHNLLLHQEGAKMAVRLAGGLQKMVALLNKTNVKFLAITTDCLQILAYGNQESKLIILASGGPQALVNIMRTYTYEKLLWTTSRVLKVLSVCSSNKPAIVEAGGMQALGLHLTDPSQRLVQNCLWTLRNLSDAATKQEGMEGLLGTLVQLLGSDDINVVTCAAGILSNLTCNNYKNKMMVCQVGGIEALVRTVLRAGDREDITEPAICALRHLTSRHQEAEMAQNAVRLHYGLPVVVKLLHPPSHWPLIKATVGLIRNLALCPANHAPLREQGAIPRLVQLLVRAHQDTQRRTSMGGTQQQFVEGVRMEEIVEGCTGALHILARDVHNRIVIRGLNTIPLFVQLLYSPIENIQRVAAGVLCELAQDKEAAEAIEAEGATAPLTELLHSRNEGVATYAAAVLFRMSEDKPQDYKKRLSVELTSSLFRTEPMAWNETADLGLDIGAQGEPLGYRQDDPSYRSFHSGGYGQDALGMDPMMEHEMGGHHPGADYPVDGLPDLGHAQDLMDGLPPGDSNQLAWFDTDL

[2] = target: T2, beta-catenin/TCF4 engagement (Homo sapiens, UniProt P35222); test: Nano-BRET target engagement assay (B-cat-Halo & TCF4-Luc in HEK293 cells); format: cell-based; conditions: absolute IC50; read-out: NanoBRET Abs IC50
T2 construct: expressed in transfected cells; host or cells: HEK293
T2 sequence (P35222 1-781): T1 sequence (P35222 1-781)

pIC50 [1]	pIC50 [2]	Compound
7.20	< 4.70	CC(=O)N1CCC[C@]12CC=CCCCC1(CCCC=CCCCOC(=O)N3CC[C@@](C(=O)N[C@@H](Cc4ccsc4)C(=O)N[C@@H](Cc4csc5ccccc45)C(=O)N[C@@H](CCC(N)=O)C(N)=O)(C3)NC(=O)[C@H](CC(N)=O)NC(=O)[C@H](Cc3ccccc3)NC(=O)[C@H](C)NC(=O)C(C)(C)NC(=O)[C@H]([C@@H](C)O)NC(=O)[C@H](CC(N)=O)NC1=O)NC(=O)[C@H](CC(C)(C)C)NC(=O)[C@H](CC(=O)O)NC2=O (stereo partly drawn) [I-2338, Ac-PL3-Asp-Npg-B5-Asn-Thr-Aib-Ala-Phe-Asn-PyrS2-3Thi-BztA-Gln-NH2]
8.30	< 4.70	CC(=O)N1CCC[C@]12CC=CCCCC1(CCCC=CCCCOC(=O)N3CC[C@@](C(=O)N[C@@H](Cc4ccccc4)C(=O)N[C@@H](Cc4csc5ccccc45)C(=O)N[C@@H](CCC(N)=O)C(N)=O)(C3)NC(=O)[C@H](CC(C)C)NC(=O)[C@H](Cc3ccccc3)NC(=O)[C@H](C)NC(=O)[C@H](CCCCNC(C)C)NC(=O)[C@H](Cc3cccc(C(=O)O)c3)NC(=O)[C@H](CC(=O)O)NC1=O)NC(=O)[C@H](CC1CCCCC1)NC(=O)[C@H](CC(N)=O)NC2=O (stereo partly drawn) [I-2340, Ac-PL3-Asn-Cha-B5-Asp-3COOHF-iPrLys-Ala-Phe-Leu-PyrS2-Phe-BztA-Gln-NH2]
7.38	< 4.70	CC(=O)N1CCC[C@]12CC=CCCCC1(CCCC=CCCCOC(=O)N3CC[C@@](C(=O)N[C@@H](Cc4ccccc4)C(=O)N[C@@H](Cc4csc5ccccc45)C(=O)N[C@@H](CCC(N)=O)C(N)=O)(C3)NC(=O)[C@H](CC(C)C)NC(=O)[C@H](Cc3ccccc3)NC(=O)[C@H](C)NC(=O)[C@H](CCCCNC(C)C)NC(=O)[C@H](CN(CC(=O)O)CC(F)(F)F)NC(=O)[C@H](CC(=O)O)NC1=O)NC(=O)[C@H](CC1CCCCC1)NC(=O)[C@H](CC(N)=O)NC2=O (stereo partly drawn) [I-2341, Ac-PL3-Asn-Cha-B5-Asp-TfeGA-iPrLys-Ala-Phe-Leu-PyrS2-Phe-BztA-Gln-NH2]
7.20	< 4.70	CC(=O)N1CCC[C@]12CC=CCCCC1(CCCC=CCCCOC(=O)N3CC[C@@](C(=O)N[C@@H](Cc4ccccc4)C(=O)N[C@@H](Cc4csc5ccccc45)C(=O)N[C@@H](CCCCN)C(N)=O)(C3)NC(=O)[C@H](CC(C)C)NC(=O)[C@H](Cc3ccccc3)NC(=O)[C@H](C)NC(=O)[C@H](CCCCNC(C)C)NC(=O)[C@H](CCC(N)=O)NC(=O)[C@H](CC(=O)O)NC1=O)NC(=O)[C@H](CC1CCCCC1)NC(=O)[C@H](CC(N)=O)NC2=O (stereo partly drawn) [I-2350, Ac-PL3-Asn-Cha-B5-Asp-Gln-iPrLys-Ala-Phe-Leu-PyrS2-Phe-BztA-Lys-NH2]
7.00	< 4.70	CC(=O)N1CCC[C@]12CC=CCCCC1(CCCC=CCCCOC(=O)N3CC[C@@](C(=O)N[C@@H](Cc4ccccc4)C(=O)N[C@@H](Cc4csc5ccccc45)C(=O)N[C@@H](CCC(N)=O)C(N)=O)(C3)NC(=O)[C@H](CC(C)C)NC(=O)[C@H](Cc3ccccc3)NC(=O)[C@H](C)NC(=O)[C@H](CCO)NC(=O)[C@H](CCC(N)=O)NC(=O)[C@H](CC(=O)O)NC1=O)NC(=O)[C@H](CC1CCCCC1)NC(=O)[C@H](CC(N)=O)NC2=O (stereo partly drawn) [I-2354, Ac-PL3-Asn-Cha-B5-Asp-Gln-Hse-Ala-Phe-Leu-PyrS2-Phe-BztA-Gln-NH2]
5.16	< 4.70	CCOC(=O)C[C@@H]1NC(=O)C2(CCCC=CCCCOC(=O)N3CC[C@@](C(=O)N[C@@H](Cc4ccsc4)C(=O)N[C@@H](Cc4csc5ccccc45)C(=O)N[C@@H](CCC(N)=O)C(N)=O)(C3)NC(=O)[C@H](CC(C)C)NC(=O)[C@H](Cc3ccccc3)NC(=O)[C@H](C)NC(=O)[C@H](C)NC(=O)[C@H](CC(=O)O)NC1=O)CCCC=CC[C@]1(CCCN1C(C)=O)C(=O)N[C@@H](CC(=O)O)C(=O)N[C@@H](CC(C)(C)C)C(=O)N2 (stereo partly drawn) [I-2357, Ac-PL3-Asp-Npg-B5-[Et]AspE-Asp-Ala-Ala-Phe-Leu-PyrS2-3Thi-BztA-Gln-NH2]
6.37	< 4.70	COC(=O)C[C@@H]1NC(=O)[C@]2(CC=CCCCC3(CCCC=CCCCOC(=O)N4CC[C@@](C(=O)N[C@@H](Cc5ccsc5)C(=O)N[C@@H](Cc5csc6ccccc56)C(=O)N[C@@H](CCC(N)=O)C(N)=O)(C4)NC(=O)[C@H](CC(C)C)NC(=O)[C@H](Cc4ccccc4)NC(=O)[C@H](C)NC(=O)[C@H](C)NC(=O)[C@H](CC(=O)O)NC(=O)[C@H](CC(=O)O)NC3=O)NC(=O)[C@H](CC(C)(C)C)NC1=O)CCCN2C(C)=O (stereo partly drawn) [I-2359, Ac-PL3-[Me]AspE-Npg-B5-Asp-Asp-Ala-Ala-Phe-Leu-PyrS2-3Thi-BztA-Gln-NH2]
5.61	< 4.70	COC(=O)C[C@@H]1NC(=O)C2(CCCC=CCCCOC(=O)N3CC[C@@](C(=O)N[C@@H](Cc4ccsc4)C(=O)N[C@@H](Cc4csc5ccccc45)C(=O)N[C@@H](CCC(N)=O)C(N)=O)(C3)NC(=O)[C@H](CC(C)C)NC(=O)[C@H](Cc3ccccc3)NC(=O)[C@H](C)NC(=O)[C@H](C)NC(=O)[C@H](CC(=O)O)NC1=O)CCCC=CC[C@]1(CCCN1C(C)=O)C(=O)N[C@@H](CC(=O)O)C(=O)N[C@@H](CC(C)(C)C)C(=O)N2 (stereo partly drawn) [I-2360, Ac-PL3-Asp-Npg-B5-[Me]AspE-Asp-Ala-Ala-Phe-Leu-PyrS2-3Thi-BztA-Gln-NH2]
6.46	4.44	COC(=O)C[C@@H]1NC(=O)[C@H](CC(=O)O)NC(=O)C2(CCCC=CCCCOC(=O)N3CC[C@@](C(=O)N[C@@H](Cc4ccsc4)C(=O)N[C@@H](Cc4csc5ccccc45)C(=O)N[C@@H](CCC(N)=O)C(N)=O)(C3)NC(=O)[C@H](CC(C)C)NC(=O)[C@H](Cc3ccccc3)NC(=O)[C@H](C)NC(=O)[C@H](C)NC1=O)CCCC=CC[C@]1(CCCN1C(C)=O)C(=O)N[C@@H](CC(=O)O)C(=O)N[C@@H](CC(C)(C)C)C(=O)N2 (stereo partly drawn) [I-2361, Ac-PL3-Asp-Npg-B5-Asp-[Me]AspE-Ala-Ala-Phe-Leu-PyrS2-3Thi-BztA-Gln-NH2]
8.15	5.21	CC(=O)N1CCC[C@]12CC=CCCCC1(CCCC=CCCCOC(=O)N3CC[C@@](C(=O)N[C@@H](Cc4ccccc4C(F)(F)F)C(=O)N[C@@H](Cc4csc5ccccc45)C(=O)N[C@@H](C)C(N)=O)(C3)NC(=O)[C@H](CC(C)C)NC(=O)[C@H](Cc3ccccc3)NC(=O)[C@H](C)NC(=O)[C@H](CCC(N)=O)NC(=O)[C@H](Cn3cc(CCC(=O)O)nn3)NC(=O)[C@H](CC(=O)O)NC1=O)NC(=O)[C@H](CC(C)(C)C)NC(=O)[C@H](CC(=O)O)NC2=O (stereo partly drawn) [I-2367, Ac-PL3-Asp-Npg-B5-Asp-[CH2CH2CO2H]TriAzDap-Gln-Ala-Phe-Leu-PyrS2-2F3MeF-BztA-Ala-NH2]
8.30	5.30	CC(=O)N1CCC[C@]12CC=CCCCC1(CCCC=CCCCOC(=O)N3CC[C@@](C(=O)N[C@@H](Cc4ccccc4C(F)(F)F)C(=O)N[C@@H](Cc4csc5ccccc45)C(=O)N[C@@H](C)C(N)=O)(C3)NC(=O)[C@H](CC(C)C)NC(=O)[C@H](Cc3ccccc3)NC(=O)[C@H](C)NC(=O)[C@H](CCC(N)=O)NC(=O)[C@H](Cn3cc(CC(C)(C)C(=O)O)nn3)NC(=O)[C@H](CC(=O)O)NC1=O)NC(=O)[C@H](CC(C)(C)C)NC(=O)[C@H](CC(=O)O)NC2=O (stereo partly drawn) [I-2368, Ac-PL3-Asp-Npg-B5-Asp-[CH2CMe2CO2H]TriAzDap-Gln-Ala-Phe-Leu-PyrS2-2F3MeF-BztA-Ala-NH2]
7.85	5.02	CC(=O)N1CCC[C@]12CC=CCCCC1(CCCC=CCCCOC(=O)N3CC[C@@](C(=O)N[C@@H](Cc4ccccc4C(F)(F)F)C(=O)N[C@@H](Cc4csc5ccccc45)C(=O)N[C@@H](C)C(N)=O)(C3)NC(=O)[C@H](CC(C)C)NC(=O)[C@H](Cc3ccccc3)NC(=O)[C@H](C)NC(=O)[C@H](CCC(N)=O)NC(=O)[C@H](Cn3cc(C(C)(C)C(=O)O)nn3)NC(=O)[C@H](CC(=O)O)NC1=O)NC(=O)[C@H](CC(C)(C)C)NC(=O)[C@H](CC(=O)O)NC2=O (stereo partly drawn) [I-2369, Ac-PL3-Asp-Npg-B5-Asp-[CMe2CO2H]TriAzDap-Gln-Ala-Phe-Leu-PyrS2-2F3MeF-BztA-Ala-NH2]
8.30	5.30	CC(=O)N1CCC[C@]12CC=CCCCC1(CCCC=CCCCOC(=O)N3CC[C@@](C(=O)N[C@@H](Cc4ccccc4C(F)(F)F)C(=O)N[C@@H](Cc4csc5ccccc45)C(=O)N[C@@H](CO)C(N)=O)(C3)NC(=O)[C@H](CC(C)C)NC(=O)[C@H](Cc3ccccc3)NC(=O)[C@H](C)NC(=O)[C@H](C)NC(=O)[C@H](Cn3cc(CCC(=O)O)nn3)NC(=O)[C@H](CC(=O)O)NC1=O)NC(=O)[C@H](CC(C)(C)C)NC(=O)[C@H](CC(=O)O)NC2=O (stereo partly drawn) [I-2371, Ac-PL3-Asp-Npg-B5-Asp-[CH2CH2CO2H]TriAzDap-Ala-Ala-Phe-Leu-PyrS2-2F3MeF-BztA-Ser-NH2]
